We go through one molecule from patent publication US9155309B2, “Virus inactivating sheet” (priority 2009, dated 2015).

The test deals with influenza virus (influenza A/Kitakyusyu/159/93(H3N2)). The test is classed as cell-based. The note with it: 10 minutes at room temperature, PBS control 128.

Molecules are shown by their SMILES. Read-outs that look alike come from different tables or passages of the source.

On to `[Cu+].[Cu+].[S-2]` [compound 26, COPPER(I) SULFIDE], for which the “HA TITER” value by setting is: (material concentration 0.5 percent by mass in PBS) 64; (material concentration 5 percent by mass in PBS) 16.
